Experimental findings from US8168677B2, “Method for treatment of inflammatory bowel disease” (Kemphys Ltd., priority 2005, dated 2012) are described below.

“And” between values parts separate entries of the source, which are not always exact repeats. Identical values can stand only once.

Test [1] concerns rat model of inflammatory bowel disease (DNBS instilled intracolonically). The test can be described thus: Evaluation of retinoids which bind to RAR and RXR using DNBS-induced rat model of inflammatory bowel disease (Example 2). It is filed as in vivo, Wistar rats. As to conditions: for Bowel Inflammation Score [average]: 24 h and 2 h before DNBS and once daily for 5 days, macroscopic score 0-10, N = 5; for Presence or Absence of Adhesion (in five rats per group): number of animals with adhesion. On the procedure: Male or female Wistar rats weighing 200±5 g were used to create an animal model of inflammatory bowel disease. After the animals were fasted for 24 hours, DNBS (2,4-Dinotrobenzenesulfonic Acid, 30 mg in 0.5 ml 30% ethanol) was instilled intracolonically through the anus. As the medicaments of the present invention, 4-[2,3-(2,5-dimethyl-2,5-hexano)dibenzo[b,f][1,4]thiazepin-11-yl] benzoic acid (HX630) at 3 mg/kg, 4-(5H-7,8,9,10-tetrahydro-5,7,7,10,10-pentamethylbenzo[e]naphtho[2,3-b][1,4]diazepin-13-yl)benzoic acid (LE135) at 5 mg/kg, or a combination of 0.1 mg/kg of Am80 and 3 mg/kg of HX630 were used, and as a comparative example (positive control drug), 300mg/kg of salazosulfapyridine (SASP) as a commercially available drug for ulcerative colitis was used, and each drug was administered 24 hours before and 2 hours before the DNBS infusion, and once daily for 5 days after 24 hours from the infusion. Each drug was administered orally as a suspension in 0.5% carboxymethylcellulose. For the control group, the solvent was administered orally according to the same schedule. The animals were subjected to anatomic examination 24 hours after the final administration, and a degree of bowel inflammation was observed. For each of the Tamibarotene-administered group, SASP-administered group, the normal group, and the control group, five rats were used.
(§1) The results are indicated as the scores of bowel inflammation (average), weight of the colon per unit body weight (100 g body weight) (average±standard error), and the number of animals in each group that gave adhesion. The scoring of bowel inflammation were conducted by visual observation according to the method of judgment described in the reference (Am. J. Physiol., 258: G527-34, 1990). • Score of Bowel Ulceration and Inflammation (Macroscopic) • Score: observation • 0: Normal; • 1: Localized hyperemia, no ulcers; • 2: Ulceration without hyperemia or colonic wall thickening; • 3: Inflammation and ulceration at one site; • 4: Ulcers and Inflammations at two or more sites; • 5: A major damaged site extending in 1 cm or longer along the direction of the colon length; and • 6-10: When a major damaged site extends in 2 cm or longer along the direction of the colon length, a score is increased by one for each additional 1 cm over 2 cm.

The subject of test [2] is model rat of inflammatory bowel disease (DNBS instilled intracolonically). The test can be described thus: Evaluation of Am80 using DNBS-induced model rat of inflammatory bowel disease (Example 1). It is filed as in vivo, Wistar rats. Conditions: for Presence or Absence of Adhesion (in five rats per group): number of animals with adhesion. As to the method: Male or female Wistar rats weighing 200±5 g were used to create an animal model of inflammatory bowel disease. After the animals were fasted for 24 hours, DNBS (2,4-Dinotrobenzenesulfonic Acid, 30 mg in 0.5 ml 30% ethanol) was instilled intracolonically through the anus. Each of 4-[(5,6,7,8-tetrahydro-5,5,8,8-tetramethyl-2-naphthalenyl)carbamoyl]benzoic acid (Am80, generic name: Tamibarotene) as the medicament of the present invention so as to be a dose at 0.3 mg/kg, and salazosulfapyridine (SASP), a commercially available drug for ulcerative colitis, as a comparative example (positive control drug) so as to be a dose at 300 mg/kg was administered 24 hours before and 2 hours before the DNBS infusion, and once daily for 5 days after 24 hours from the infusion. Tamibarotene or SASP was each administered orally as a suspension in 0.5% carboxymethylcellulose. For the control group, the solvent was administered orally according to the same schedule as that for SASP. The animals were subjected to anatomic examination 24 hours after the final administration, and a degree of bowel inflammation was observed. For each of the Tamibarotene-administered group, SASP-administered group, the normal group, and the control group, five rats were used.
as §1, with “of the bowel per unit” for “of the colon per unit”

Regarding `CC1(C)CCC(C)(C)c2cc3c(cc21)Sc1ccccc1N=C3c1ccc(C(=O)O)cc1` [HX630, 4-[2,3-(2,5-dimethyl-2,5-hexano)dibenzo[b,f][1,4]thiazepin-11-yl] benzoic acid], in test [1] (HX630 3 mg/kg oral), the “Bowel Inflammation Score [average]” value was found to be 3.4 and the “Presence or Absence of Adhesion (in five rats per group)” value is on record as 1/5.
For the molecule `CN1c2cc3c(cc2N=C(c2ccc(C(=O)O)cc2)c2ccccc21)C(C)(C)CCC3(C)C` [LE135, 4-(5H-7,8,9,10-tetrahydro-5,7,7,10,10-pentamethylbenzo[e]naphtho[2,3-b][1,4]diazepin-13-yl)benzoic acid], in test [1] (LE135 5 mg/kg oral), the “Bowel Inflammation Score [average]” value was found to be 2.4 and the “Presence or Absence of Adhesion (in five rats per group)” value is 0/5.
With `O=C(O)c1cc(/N=N/c2ccc(S(=O)(=O)Nc3ccccn3)cc2)ccc1O` [SASP, salazosulfapyridine], the “Bowel Inflammation Score [average]” value in test [2] (SASP 300 mg/kg oral, 24 h and 2 h before DNBS and once daily for 5 days, macroscopic score 0-10, N = 5) stood at 2. Besides, the “Colon weight/100 g body weight [average]” value in test [2] (SASP 300 mg/kg oral, average ± standard error, N = 5) is 0.682 ± 0.023. Besides, the “Presence or Absence of Adhesion (in five rats per group)” value in test [2] (SASP 300 mg/kg oral) is 2/5.
Turning to `CC1(C)CCC(C)(C)c2cc(NC(=O)c3ccc(C(=O)O)cc3)ccc21` [Tamibarotene, 4-[(5,6,7,8-tetrahydro-5,5,8,8-tetramethyl-2-naphthalenyl)carbamoyl]benzoic acid], in test [2] (Tamibarotene 0.3 mg/kg oral), the “Presence or Absence of Adhesion (in five rats per group)” value is “significantly suppressed and 0/5”.
